# The source made the active and inactive calls.
# What was measured:
# [1] = molecular target: T1, Aminopeptidase N (Plasmodium falciparum FcB1/Columbia, UniProt O96935); test: malaria alanyl aminopeptidase activity blockers – biochemical, fluorogenic H-Leu-NHMec substrate, 1536-well (AID 1445); parameters: species or system Plasmodium falciparum 3D7, 3D7
# T1 sequence (O96935 whole entry): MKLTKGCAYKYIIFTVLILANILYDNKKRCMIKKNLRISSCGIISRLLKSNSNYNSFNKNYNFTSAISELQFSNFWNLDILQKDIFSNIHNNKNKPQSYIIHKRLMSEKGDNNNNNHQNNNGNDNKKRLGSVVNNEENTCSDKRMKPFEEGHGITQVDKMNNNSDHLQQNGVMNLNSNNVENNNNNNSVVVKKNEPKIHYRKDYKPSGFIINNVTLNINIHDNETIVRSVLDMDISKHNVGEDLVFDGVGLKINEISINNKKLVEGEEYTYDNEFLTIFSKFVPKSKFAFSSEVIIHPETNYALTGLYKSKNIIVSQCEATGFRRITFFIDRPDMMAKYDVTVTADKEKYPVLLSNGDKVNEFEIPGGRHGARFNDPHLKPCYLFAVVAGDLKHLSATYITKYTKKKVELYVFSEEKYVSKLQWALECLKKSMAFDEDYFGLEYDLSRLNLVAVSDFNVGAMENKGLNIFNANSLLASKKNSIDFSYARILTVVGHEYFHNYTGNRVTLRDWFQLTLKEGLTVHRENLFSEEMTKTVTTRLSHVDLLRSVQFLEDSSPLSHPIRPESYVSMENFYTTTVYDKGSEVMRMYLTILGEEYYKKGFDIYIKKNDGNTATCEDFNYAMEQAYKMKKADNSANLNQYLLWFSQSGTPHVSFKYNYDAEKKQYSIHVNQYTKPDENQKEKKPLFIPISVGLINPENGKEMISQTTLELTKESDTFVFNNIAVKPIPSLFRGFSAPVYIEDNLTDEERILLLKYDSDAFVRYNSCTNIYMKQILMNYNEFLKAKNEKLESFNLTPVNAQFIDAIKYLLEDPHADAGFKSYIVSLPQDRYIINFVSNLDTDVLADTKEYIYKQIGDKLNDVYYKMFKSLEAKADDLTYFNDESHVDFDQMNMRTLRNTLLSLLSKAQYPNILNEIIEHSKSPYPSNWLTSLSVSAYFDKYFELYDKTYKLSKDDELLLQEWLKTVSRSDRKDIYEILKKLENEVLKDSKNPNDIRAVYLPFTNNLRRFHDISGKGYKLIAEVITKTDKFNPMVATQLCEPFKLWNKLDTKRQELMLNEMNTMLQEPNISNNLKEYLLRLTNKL
# [2] = molecular target: DNA dC->dU-editing enzyme APOBEC-3G (Homo sapiens, UniProt Q9HC16); type: functional;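 further: Dose-response counterscreen measuring inhibition of APOBEC3G DNA deaminase activity, run while confirming APOBEC3A inhibitors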
# [3] = molecular target: DNA dC->dU-editing enzyme APOBEC-3A (Homo sapiens, UniProt P31941); test: Dose Response confirmation of small molecule APOBEC3A DNA Deaminase Inhibitors via a fluorescence-based single-stranded DNA deaminase assay. [Related pubchem assays (depositor defined):AID493011, AID493024]; type: functional
# [4] = molecular target: T2, Nucleotide-binding oligomerization domain-containing protein 1 (Homo sapiens, UniProt Q9Y239); test: blockers of NOD1 pathway activity – revised, SAR follow-up (AID 2333); type: functional
# T2 sequence (Q9Y239 whole entry): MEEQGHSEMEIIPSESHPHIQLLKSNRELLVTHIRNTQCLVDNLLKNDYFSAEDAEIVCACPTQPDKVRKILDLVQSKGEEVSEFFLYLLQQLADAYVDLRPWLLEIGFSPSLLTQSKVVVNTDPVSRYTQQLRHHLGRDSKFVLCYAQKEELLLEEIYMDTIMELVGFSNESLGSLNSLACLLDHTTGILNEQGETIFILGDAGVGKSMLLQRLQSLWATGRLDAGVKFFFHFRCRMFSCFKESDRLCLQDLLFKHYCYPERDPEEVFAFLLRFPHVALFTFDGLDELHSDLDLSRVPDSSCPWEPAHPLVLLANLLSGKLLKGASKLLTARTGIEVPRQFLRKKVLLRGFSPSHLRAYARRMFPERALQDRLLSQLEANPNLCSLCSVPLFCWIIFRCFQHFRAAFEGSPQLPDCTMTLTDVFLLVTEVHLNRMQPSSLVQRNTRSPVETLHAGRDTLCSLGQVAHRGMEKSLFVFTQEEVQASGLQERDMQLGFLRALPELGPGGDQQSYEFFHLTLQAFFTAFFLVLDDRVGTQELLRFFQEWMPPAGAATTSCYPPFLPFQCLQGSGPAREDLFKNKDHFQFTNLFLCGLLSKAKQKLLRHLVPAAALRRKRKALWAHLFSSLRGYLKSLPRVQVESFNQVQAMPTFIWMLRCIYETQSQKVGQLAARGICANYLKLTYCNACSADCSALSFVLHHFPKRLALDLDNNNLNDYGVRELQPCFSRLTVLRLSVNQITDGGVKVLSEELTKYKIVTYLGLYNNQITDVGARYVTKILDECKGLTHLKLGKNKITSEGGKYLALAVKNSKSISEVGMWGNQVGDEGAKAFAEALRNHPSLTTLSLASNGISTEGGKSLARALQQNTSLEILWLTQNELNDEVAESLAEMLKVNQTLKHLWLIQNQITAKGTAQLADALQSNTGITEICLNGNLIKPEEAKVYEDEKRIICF
# [5] = molecular target: Tumor necrosis factor (Homo sapiens, UniProt P01375); test: analog potency on TNFa NF-kB signaling – cell-based, revised, SAR follow-up (AID 2337); type: functional
# [6] = molecular target: T3, Coagulation factor XII (Homo sapiens, UniProt P00748); test: activated coagulation factor XII inhibitor potency, concentration-effect curve, cell-free (AID 716); type: functional
# T3 sequence (P00748 whole entry): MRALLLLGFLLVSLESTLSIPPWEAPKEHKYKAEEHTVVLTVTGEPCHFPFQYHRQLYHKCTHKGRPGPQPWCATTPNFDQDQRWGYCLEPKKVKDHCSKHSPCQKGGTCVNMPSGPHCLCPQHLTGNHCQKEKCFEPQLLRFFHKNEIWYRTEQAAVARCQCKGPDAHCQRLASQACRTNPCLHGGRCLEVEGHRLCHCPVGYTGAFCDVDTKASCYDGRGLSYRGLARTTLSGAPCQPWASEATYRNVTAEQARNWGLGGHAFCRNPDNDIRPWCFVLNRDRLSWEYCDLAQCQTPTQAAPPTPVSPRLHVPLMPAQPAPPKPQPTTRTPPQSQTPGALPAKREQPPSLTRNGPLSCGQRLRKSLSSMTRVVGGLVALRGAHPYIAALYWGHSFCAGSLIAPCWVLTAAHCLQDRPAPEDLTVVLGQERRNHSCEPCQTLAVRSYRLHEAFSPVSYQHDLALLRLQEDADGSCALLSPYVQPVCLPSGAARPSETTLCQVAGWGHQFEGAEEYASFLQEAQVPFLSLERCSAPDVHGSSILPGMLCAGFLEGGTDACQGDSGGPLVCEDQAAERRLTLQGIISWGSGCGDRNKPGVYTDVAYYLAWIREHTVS
# [7] = Luminescence Cell-Based Dose Retest to Confirm Inhibitors of Cancer Stem Cells. [Related pubchem assays (depositor defined):AID2717, AID2721]; type: functional; settings: Homo sapiens
# [8] = molecular target: Eukaryotic translation initiation factor 4E (Mus musculus, UniProt P63073); test: blockers of eIF4G binding by eIF4E – biochemical, TR-FRET, dose response (AID 855); type: functional;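 further: potency for disrupting eIF4E binding to eIF4GI seen as loss of FRET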
# [9] = test system: HEK293; test: cells; type: functional, cell-based; settings: Homo sapiens
# [10] = test system: HEK293; test: cells; settings: Homo sapiens
# [11] = test system: HEK293; test: inhibition of NOD1-driven NF-kB reporter – cell-based, luminescence, uHTS, primary screen (AID 1578); type: functional; settings: Homo sapiens
# [12] = HEK-293T viability loss after treatment – luminescence, T-cell screen hits, cytotoxicity control for TCR NF-kB inhibitor project, dose response (AID 489026); type: functional, cell-based;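 further: cells exposed to compound about 14 hours before the viability readout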
# [13] = test system: HEK293; test: NOD2 signaling inhibitors in MDP-stimulated cells, cell-based, uHTS, luminescence (AID 2001); type: functional; settings: Homo sapiens
# [14] = test system: HEK293; test: cells; type: functional, cell-based; settings: Homo sapiens; remark: listed apart in the source
# [15] = molecular target: T4, Insulin-degrading enzyme (Homo sapiens, UniProt P14735); test: Dose Response: Fluorescence polarization-based cell-based high throughput dose response assay for inhibitors of insulin-degrading enzyme (IDE). [Related pubchem assays: 434962 (Primary screen (IDE inhibitors in singlicate)), 449730 (Counterscreen (Cytotoxicity in triplicate)), 435028 (Confirmation (IDE inhibitors in triplicate)), 434984 (Summary …; type: functional
# T4 sequence (P14735 whole entry): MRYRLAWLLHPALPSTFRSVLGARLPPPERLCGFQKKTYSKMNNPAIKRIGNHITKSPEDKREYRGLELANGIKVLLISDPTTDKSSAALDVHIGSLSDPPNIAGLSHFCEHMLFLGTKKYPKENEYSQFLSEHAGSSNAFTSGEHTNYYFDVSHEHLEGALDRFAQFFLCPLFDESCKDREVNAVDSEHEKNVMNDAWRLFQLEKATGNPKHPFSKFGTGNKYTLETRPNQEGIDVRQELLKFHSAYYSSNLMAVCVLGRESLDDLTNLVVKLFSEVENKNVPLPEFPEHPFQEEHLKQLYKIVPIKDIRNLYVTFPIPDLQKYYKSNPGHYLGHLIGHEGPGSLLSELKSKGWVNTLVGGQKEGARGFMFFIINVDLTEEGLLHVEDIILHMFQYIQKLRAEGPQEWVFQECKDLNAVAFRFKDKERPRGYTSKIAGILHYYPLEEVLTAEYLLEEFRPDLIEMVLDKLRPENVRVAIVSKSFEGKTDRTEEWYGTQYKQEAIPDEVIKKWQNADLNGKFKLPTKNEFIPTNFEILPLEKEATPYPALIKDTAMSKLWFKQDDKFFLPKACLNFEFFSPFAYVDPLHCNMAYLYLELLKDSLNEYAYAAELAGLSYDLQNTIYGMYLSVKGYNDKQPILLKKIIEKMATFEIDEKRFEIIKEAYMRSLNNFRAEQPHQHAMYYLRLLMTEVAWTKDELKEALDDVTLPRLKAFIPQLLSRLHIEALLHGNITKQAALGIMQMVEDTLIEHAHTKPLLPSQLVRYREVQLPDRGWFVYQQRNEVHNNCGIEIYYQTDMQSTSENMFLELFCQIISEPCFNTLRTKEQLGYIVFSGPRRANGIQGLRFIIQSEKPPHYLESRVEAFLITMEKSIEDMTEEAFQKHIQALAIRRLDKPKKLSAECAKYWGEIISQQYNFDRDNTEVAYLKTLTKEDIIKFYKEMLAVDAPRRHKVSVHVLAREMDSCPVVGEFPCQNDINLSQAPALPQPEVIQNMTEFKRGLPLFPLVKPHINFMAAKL
# [16] = Counterscreen for IDE inhibitors: Luminescence-based cell-based high throughput dose response assay to identify compounds that are cytotoxic to HEK cells. [Related pubchem assays: 434962 (Primary screen (IDE inhibitors in singlicate)), 449730 (Counterscreen (Cytotoxicity in triplicate)), 435028 (Confirmation (IDE inhibitors in triplicate)) …; type: functional; settings: HEK293
# [17] = molecular target: Large T antigen (Simian virus 40, UniProt P03070); type: functional, Betapolyomavirus macacae;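 further: Confirmatory-stage PubChem screen for compounds that inhibit SV40 T antigen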
# [18] = molecular target: T5, Protein Rev (Human immunodeficiency virus type 1 group M subtype B (isolate WMJ22)(HIV-1), UniProt P05866); test: inhibitors of Rev protein–RRE RNA complex – biochemical, protein-RNA interaction, dose response (AID 842); parameters: species or system Human immunodeficiency virus 1
# T5 sequence (P05866 whole entry): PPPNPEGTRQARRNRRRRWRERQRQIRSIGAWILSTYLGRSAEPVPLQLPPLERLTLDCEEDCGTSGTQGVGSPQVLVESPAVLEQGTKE
# [19] = HEK-293T cell viability reduction – luminescence, B-cell screen hits, cytotoxicity control for BCR NF-kB inhibitor project, dose response (AID 489021); type: functional, cell-based;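 further: HEK-293T cells carrying an NF-kB luciferase reporter; cells exposed to compound for about 14 hours before viability readout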
# 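Wherever AC50 is given: cells exposed to compound for roughly 70 hours or longer before luminescence read.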
# Sequence of DNA dC->dU-editing enzyme APOBEC-3G (Q9HC16 whole entry): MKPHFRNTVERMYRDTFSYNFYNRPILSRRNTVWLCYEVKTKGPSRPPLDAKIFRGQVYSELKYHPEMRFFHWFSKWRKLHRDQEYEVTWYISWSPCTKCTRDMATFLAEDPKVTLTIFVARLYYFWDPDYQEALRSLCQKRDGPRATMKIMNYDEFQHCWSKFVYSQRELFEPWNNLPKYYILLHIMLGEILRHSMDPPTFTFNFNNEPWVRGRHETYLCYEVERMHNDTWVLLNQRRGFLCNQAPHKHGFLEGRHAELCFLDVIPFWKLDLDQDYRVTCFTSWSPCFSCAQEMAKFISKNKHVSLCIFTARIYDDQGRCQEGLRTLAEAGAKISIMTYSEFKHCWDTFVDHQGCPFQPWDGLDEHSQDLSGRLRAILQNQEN
# Sequence of DNA dC->dU-editing enzyme APOBEC-3A (P31941 whole entry, the tested form may be a part): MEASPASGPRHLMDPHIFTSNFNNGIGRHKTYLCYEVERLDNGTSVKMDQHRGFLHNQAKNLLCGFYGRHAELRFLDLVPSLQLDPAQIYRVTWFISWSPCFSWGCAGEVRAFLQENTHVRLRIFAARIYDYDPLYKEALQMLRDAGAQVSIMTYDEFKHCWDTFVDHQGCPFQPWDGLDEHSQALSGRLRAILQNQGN
# Sequence of Tumor necrosis factor (P01375 whole entry): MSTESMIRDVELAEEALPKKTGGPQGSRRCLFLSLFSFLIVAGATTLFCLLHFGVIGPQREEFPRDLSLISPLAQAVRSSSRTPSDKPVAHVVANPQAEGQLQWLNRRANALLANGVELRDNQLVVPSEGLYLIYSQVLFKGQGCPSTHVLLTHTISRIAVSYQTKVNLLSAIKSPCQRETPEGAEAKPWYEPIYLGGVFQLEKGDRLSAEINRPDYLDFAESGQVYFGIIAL
# Sequence of Large T antigen (P03070 whole entry): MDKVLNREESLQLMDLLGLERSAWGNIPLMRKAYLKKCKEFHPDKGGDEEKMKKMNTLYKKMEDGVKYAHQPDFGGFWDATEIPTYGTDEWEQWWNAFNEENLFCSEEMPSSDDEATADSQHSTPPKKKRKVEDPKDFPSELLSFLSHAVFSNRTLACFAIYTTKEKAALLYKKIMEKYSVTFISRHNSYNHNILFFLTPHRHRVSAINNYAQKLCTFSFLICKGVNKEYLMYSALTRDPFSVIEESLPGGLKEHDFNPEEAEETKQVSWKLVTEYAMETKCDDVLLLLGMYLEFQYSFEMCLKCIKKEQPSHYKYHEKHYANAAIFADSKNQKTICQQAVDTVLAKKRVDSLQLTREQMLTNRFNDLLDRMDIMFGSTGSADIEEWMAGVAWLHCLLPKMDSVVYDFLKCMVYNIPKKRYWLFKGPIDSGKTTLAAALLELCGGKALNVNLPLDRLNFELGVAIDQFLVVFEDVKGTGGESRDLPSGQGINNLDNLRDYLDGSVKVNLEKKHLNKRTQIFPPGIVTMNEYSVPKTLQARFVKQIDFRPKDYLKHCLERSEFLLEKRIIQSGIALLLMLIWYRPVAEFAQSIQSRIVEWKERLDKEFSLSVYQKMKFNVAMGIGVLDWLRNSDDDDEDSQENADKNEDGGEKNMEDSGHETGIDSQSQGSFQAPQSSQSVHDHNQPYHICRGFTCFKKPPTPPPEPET
# Sequence of Eukaryotic translation initiation factor 4E (P63073 whole entry): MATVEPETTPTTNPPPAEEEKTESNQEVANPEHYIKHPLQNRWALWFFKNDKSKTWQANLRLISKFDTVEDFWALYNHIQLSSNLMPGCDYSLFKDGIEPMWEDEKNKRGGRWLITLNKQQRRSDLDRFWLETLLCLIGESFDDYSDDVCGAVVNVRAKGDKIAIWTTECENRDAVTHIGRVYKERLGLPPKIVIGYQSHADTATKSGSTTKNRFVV
smiles,measurement,setting,value
NC(=O)c1ccc(NC(=O)c2ccccc2S(=O)(=O)c2ccccc2[N+](=O)[O-])cc1,IC50,[1],102 µM (active)
COc1cc(C(N)=O)cc(Br)c1OC,IC50,[2],12.2 µM (active)
same,IC50,[3],9.8 µM (active)
COc1ccc(S(=O)(=O)N2CCC(C(=O)NCc3ccccc3)CC2)cc1OC,IC50,[1],68.4 µM (active)
CC(C)(C)c1ccc(C(=O)ONC(=N)c2cccc([N+](=O)[O-])c2)cc1,IC50,[4],> 20 µM (inactive)
same,IC50,[5],> 20 µM (inactive)
CN1CCN(C(=O)c2ccc3c(=O)n(Cc4ccc(Cl)cc4)c(=S)[nH]c3c2)CC1,IC50,[6],> 50 µM (inactive)
NC(=O)c1sc(-c2ccsc2)cc1NS(=O)(=O)c1ccc(C(F)(F)F)cc1,IC50,[1],22.1 µM (active)
same,AC50,[7],11.7 µM (active)
O=C(NCc1ccc2c(c1)OCO2)c1ccc2c(c1)OCCO2,IC50,[8],50 µM (inactive)
CC(=O)N1c2ccc(S(=O)(=O)N3CCC(C(=O)Nc4cccc(C)n4)CC3)cc2CC1C (stereo unspecified),IC50,[9],8.99 µM (active)
same,IC50,[10],> 20 µM (inactive)
same,EC50,[11],2.79 µM (active)
same,IC50,[12],> 80 µM (inactive)
same,IC50,[4],4.8 µM (active)
same,IC50,[13],12.4 µM (inactive)
same,IC50,[5],6.02 µM (active)
same,IC50,[14],> 20 µM (inactive)
O=S(=O)(c1ccc(SCc2cccc(Cl)c2)nc1)N1CCCC1,IC50,[15],> 55.9 µM (not active)
same,IC50,[16],27.1 µM (not active)
CCOc1cc(-c2ccc(N)c(OCC)c2)ccc1N,IC50,[17],12.3 µM (active)
same,IC50,[18],2.47 µM (active)
C=CCSc1nnc(Cc2cc(O)nc(O)n2)n1-c1cc(C)ccc1C,IC50,[6],> 50 µM (inactive)
CC(=O)c1cccc(OCC(=O)N2CCN(c3ccc(C(F)(F)F)cn3)CC2)c1,IC50,[15],19.2 µM (not active)
same,IC50,[16],19.4 µM (not active)
CC1CCC(C(C)C)C(OCC(O)C[N+]2(C)CCCCC2)C1 (stereo unspecified),IC50,[2],3.66 µM (active)
same,IC50,[3],2.6 µM (active)
CCc1sc(C(=O)Nc2cccc(-n3cnnn3)c2)cc1C,IC50,[15],17.3 µM (not active)
same,IC50,[19],> 80 µM (inactive)
same,IC50,[16],20.7 µM (not active)
CC(=O)c1cccc(NS(=O)(=O)c2c(C)noc2C)c1,IC50,[6],> 50 µM (inactive)

# From ChEMBL document CHEMBL1201862, “PubChem BioAssay data set” (2004)
